We go through 29 molecules from US8063220B2, “Sulfonyl-quinoline derivatives” (Richter Gedeon Nyrt., priority 2007, dated 2011).

In one test the target is mGluR1 receptors (Homo sapiens, UniProt Q13255). The test can be described thus: Activity on mGluR1 receptors (test not specified).
The target of another test is mGluR5 receptors (Homo sapiens, UniProt P41594). Description: Activity on mGluR5 receptors (test not specified).
Another test concerns the target T1, rat mGluR5 (Rattus norvegicus, UniProt P31424).
T1 construct: Rat cerebro-cortical membrane preparation was used; from tissue; host or cells: rat cerebral cortex (membrane preparation)
The test can be described thus: MGluR5 receptor binding test ([3H]-M-MPEP displacement, rat cerebro-cortical membrane preparation). Conditions: rat mGluR5, [3H]-M-MPEP 2 nM; read-out: mGlu5 Ki. As for the experimental part: Rat cerebro-cortical membrane preparation was used to determine the binding characteristics of reference compounds and novel compounds to the rat mGluR5. The A18 cell line expressing hmGluR5a (purchased from Euroscreen) was used to determine binding characteristics of the chemical compounds to the human mGluR5a receptor. [3H]-M-MPEP (2 nM) was used as radioligand. The nonspecific binding was determined in the presence of 10 μM M-MPEP.

A further test addresses T2, rat mGluR1 (Rattus norvegicus, UniProt P23385).
T2 construct: rat cerebellar membrane preparation was used; from tissue; host or cells: rat cerebellum (membrane preparation)
The test can be described thus: MGluR1 receptor binding test ([3H]R214127 displacement, rat cerebellar membrane preparation). Conditions: rat mGluR1, [3H]R214127 3 nM; read-out: mGlu1 Ki. In a few lines:
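Rat cerebellar membranes with 3 nM [3H]R214127; nonspecific binding defined by 1 μM R214127. IC50 from displacement curves by nonlinear regression, converted to Ki by Cheng–Prusoff.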

T1 sequence (P31424 21-1203): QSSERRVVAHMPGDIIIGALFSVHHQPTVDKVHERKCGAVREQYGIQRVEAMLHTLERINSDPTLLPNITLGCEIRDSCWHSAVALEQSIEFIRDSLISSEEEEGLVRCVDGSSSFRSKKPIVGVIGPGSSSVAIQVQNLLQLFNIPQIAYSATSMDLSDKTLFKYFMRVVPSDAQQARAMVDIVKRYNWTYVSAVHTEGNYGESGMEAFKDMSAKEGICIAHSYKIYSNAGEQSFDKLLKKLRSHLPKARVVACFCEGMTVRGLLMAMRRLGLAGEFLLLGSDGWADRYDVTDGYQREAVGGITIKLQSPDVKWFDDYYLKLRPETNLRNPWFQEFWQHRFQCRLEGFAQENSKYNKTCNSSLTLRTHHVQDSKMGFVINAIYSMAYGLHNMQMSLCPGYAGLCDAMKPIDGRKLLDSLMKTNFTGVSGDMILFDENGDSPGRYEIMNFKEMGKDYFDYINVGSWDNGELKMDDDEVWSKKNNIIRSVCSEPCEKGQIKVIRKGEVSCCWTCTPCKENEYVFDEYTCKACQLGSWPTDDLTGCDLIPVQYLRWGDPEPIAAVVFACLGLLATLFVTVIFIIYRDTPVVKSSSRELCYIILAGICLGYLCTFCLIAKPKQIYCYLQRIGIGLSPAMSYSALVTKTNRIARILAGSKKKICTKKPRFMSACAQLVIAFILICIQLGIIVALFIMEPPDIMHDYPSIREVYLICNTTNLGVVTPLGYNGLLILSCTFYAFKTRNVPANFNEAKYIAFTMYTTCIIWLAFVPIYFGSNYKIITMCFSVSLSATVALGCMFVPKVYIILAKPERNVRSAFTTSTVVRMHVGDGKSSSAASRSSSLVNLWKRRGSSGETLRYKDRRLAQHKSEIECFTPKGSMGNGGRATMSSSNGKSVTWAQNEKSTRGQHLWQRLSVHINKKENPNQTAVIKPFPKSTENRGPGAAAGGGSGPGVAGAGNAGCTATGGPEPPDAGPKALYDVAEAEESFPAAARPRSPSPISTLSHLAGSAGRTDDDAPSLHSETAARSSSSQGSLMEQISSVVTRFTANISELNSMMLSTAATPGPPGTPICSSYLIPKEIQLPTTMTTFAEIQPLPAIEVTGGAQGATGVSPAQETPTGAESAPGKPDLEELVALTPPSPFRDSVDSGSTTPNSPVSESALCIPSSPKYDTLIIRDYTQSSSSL
T2 sequence (P23385 19-1199): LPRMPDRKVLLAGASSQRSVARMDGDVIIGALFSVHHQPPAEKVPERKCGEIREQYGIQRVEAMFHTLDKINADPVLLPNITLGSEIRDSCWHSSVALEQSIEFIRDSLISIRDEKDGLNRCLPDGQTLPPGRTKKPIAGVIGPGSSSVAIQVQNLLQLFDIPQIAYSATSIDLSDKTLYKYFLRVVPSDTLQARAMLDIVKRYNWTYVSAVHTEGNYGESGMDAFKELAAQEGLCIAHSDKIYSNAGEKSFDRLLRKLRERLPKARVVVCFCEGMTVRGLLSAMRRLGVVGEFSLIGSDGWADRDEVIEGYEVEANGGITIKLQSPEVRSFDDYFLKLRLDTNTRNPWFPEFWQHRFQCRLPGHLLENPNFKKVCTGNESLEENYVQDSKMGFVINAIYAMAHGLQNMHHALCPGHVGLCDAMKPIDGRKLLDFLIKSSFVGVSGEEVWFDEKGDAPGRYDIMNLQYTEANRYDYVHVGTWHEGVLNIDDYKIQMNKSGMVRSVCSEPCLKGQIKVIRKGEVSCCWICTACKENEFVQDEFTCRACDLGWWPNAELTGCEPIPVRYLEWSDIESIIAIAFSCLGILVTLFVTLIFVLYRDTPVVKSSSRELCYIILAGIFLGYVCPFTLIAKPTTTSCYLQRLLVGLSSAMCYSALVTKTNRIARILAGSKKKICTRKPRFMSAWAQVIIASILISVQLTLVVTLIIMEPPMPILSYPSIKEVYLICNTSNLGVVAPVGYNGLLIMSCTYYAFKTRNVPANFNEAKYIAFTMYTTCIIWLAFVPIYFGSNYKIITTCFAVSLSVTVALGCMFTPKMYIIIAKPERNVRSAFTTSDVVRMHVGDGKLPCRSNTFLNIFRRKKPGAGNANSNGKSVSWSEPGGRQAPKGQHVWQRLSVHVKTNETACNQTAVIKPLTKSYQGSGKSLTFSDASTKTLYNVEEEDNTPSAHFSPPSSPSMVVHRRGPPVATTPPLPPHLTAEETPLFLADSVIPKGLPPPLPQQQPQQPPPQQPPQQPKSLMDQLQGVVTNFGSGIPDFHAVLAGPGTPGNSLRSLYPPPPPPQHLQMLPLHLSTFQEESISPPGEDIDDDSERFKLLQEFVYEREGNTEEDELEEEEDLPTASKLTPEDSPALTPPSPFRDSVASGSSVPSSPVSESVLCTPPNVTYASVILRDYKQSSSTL
mGluR1 receptors, sequence (Q13255 19-1194): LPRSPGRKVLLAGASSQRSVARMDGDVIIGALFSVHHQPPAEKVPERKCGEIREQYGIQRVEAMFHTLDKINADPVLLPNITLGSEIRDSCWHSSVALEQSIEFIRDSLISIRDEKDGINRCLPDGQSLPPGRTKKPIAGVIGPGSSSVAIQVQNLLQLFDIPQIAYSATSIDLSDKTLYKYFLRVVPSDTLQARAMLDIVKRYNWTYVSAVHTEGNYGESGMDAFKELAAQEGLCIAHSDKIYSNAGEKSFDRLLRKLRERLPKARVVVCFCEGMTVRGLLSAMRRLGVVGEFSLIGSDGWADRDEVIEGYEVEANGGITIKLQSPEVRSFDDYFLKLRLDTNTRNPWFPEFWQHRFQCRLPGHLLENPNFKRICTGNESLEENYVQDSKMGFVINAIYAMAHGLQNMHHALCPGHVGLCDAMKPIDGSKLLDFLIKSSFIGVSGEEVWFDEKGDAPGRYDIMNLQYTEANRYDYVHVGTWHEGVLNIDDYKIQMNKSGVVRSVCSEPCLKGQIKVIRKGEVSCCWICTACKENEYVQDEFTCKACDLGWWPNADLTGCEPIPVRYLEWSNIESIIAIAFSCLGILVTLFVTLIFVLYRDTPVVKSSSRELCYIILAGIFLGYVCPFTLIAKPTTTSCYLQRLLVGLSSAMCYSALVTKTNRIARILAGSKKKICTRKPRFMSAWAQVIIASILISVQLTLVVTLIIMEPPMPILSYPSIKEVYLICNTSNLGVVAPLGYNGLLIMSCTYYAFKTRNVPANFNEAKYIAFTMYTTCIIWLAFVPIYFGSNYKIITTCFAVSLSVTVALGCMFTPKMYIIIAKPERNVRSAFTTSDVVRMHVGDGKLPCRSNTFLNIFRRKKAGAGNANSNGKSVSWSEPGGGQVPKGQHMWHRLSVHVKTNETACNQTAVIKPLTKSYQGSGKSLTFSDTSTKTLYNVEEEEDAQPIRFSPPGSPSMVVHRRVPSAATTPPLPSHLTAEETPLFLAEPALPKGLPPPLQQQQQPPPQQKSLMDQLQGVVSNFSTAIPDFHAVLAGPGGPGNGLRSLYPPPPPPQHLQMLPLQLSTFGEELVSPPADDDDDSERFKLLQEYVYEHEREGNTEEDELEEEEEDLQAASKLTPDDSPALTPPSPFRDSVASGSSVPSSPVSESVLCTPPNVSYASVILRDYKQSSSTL
mGluR5 receptors, sequence (P41594 21-1212): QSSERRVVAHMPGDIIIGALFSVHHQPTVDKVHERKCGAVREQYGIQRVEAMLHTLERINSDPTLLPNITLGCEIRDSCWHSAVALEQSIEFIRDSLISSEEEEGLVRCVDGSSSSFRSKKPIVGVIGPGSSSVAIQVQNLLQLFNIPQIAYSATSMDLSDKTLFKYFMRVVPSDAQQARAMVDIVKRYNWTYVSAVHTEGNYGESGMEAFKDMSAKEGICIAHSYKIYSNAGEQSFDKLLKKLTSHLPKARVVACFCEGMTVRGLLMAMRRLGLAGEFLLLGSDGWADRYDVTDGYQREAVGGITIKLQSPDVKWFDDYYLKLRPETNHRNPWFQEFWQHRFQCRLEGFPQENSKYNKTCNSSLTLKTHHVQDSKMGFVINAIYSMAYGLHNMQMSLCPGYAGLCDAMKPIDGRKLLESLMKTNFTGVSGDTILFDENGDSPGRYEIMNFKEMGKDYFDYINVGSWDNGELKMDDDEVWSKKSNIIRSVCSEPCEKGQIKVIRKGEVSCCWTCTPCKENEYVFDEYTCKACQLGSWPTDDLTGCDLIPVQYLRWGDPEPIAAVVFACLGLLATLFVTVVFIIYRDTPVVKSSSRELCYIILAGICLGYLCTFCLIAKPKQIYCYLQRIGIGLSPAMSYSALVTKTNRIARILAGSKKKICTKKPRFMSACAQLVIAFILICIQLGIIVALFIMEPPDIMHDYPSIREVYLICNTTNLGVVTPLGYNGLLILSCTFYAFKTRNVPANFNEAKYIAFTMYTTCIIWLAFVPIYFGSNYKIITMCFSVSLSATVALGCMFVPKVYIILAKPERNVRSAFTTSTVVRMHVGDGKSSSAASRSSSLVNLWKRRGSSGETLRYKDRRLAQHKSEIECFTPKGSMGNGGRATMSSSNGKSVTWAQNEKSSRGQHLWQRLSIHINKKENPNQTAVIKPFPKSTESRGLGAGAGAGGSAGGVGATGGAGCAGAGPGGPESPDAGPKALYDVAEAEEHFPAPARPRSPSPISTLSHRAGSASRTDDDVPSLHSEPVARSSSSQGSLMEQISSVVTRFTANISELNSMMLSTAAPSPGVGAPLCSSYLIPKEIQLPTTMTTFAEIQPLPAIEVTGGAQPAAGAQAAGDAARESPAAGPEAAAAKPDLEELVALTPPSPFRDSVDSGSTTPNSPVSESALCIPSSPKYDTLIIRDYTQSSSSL

On to `O=S(=O)(c1ccccc1)c1cnc2c(C(F)(F)F)cccc2c1-c1ccccc1` [3-benzenesulfonyl-4-phenyl-8-trifluoromethyl-quinoline], for which the “activity on mGluR1 receptors” value at mGluR1 receptors was “inactive”. The “activity on mGluR5 receptors” value on mGluR5 receptors was “inactive”.

In the case of `N#Cc1cc(F)cc(S(=O)(=O)c2cnc3cc(Cl)ccc3c2-c2cccc(Cl)c2)c1` [Compound 250], the Ki (usually the equilibrium dissociation constant of an inhibitor or competing ligand from its target) on rat mGluR5 was less than 200 nM; on rat mGluR1, 200 to 500 nM.

As for `O=S(=O)(c1ccc(F)c(F)c1)c1cnc2cc(F)ccc2c1-c1ccc(F)c(F)c1` [Compound 251], the Ki on rat mGluR5 was less than 200 nM; on rat mGluR1 it was more than 500 nM.

In the case of `O=S(=O)(c1cc(Cl)cc(Cl)c1)c1cnc2c(F)c(Cl)ccc2c1-c1cccc(Cl)c1` [Compound 252], the Ki is less than 200 nM on rat mGluR5 and 200 to 500 nM on rat mGluR1.

Take `N#Cc1cccc(S(=O)(=O)c2cnc3c(F)c(Cl)ccc3c2-c2cccc(Cl)c2)c1` [Compound 253]: the Ki is less than 200 nM on rat mGluR5 and 200 to 500 nM on rat mGluR1.

Consider `N#Cc1cccc(S(=O)(=O)c2cnc3cc(Cl)ccc3c2-c2cccc(Cl)c2)c1` [Compound 254], for which the Ki at rat mGluR5 was less than 200 nM; at rat mGluR1, 200 to 500 nM.

Regarding `O=S(=O)(c1cc(Cl)cc(Cl)c1)c1cnc2cc(Cl)ccc2c1-c1ccccc1F` [Compound 255], the Ki at rat mGluR5 was less than 200 nM; at rat mGluR1, 200 to 500 nM.

Take `N#Cc1cc(C#N)cc(S(=O)(=O)c2cnc3cc(F)ccc3c2-c2ccc(F)c(F)c2)c1` [Compound 256]: the inhibition constant Ki on rat mGluR5 is less than 200 nM; on rat mGluR1, more than 500 nM.

Consider `O=S(=O)(c1cc(Cl)cc(Cl)c1)c1cnc2cc(F)ccc2c1-c1ccccc1F` [Compound 257], for which the Ki on rat mGluR5 was less than 200 nM; on rat mGluR1 it was more than 500 nM.

With `O=S(=O)(c1ccc(F)c(Cl)c1)c1cnc2cc(F)ccc2c1-c1cccc(Cl)c1` [Compound 258], the Ki on rat mGluR5 was less than 200 nM; at rat mGluR1, 200 to 500 nM.

Consider `O=S(=O)(c1ccc(F)c(F)c1)c1cnc2c(F)cccc2c1-c1cccc(Cl)c1` [Compound 259], for which the results for the Ki at rat mGluR5 and on rat mGluR1 were less than 200 nM and more than 500 nM, respectively.

Take `O=S(=O)(c1ccc(F)c(F)c1)c1cnc2ccccc2c1-c1ccc(Cl)c(Cl)c1` [Compound 260]: the inhibition constant (Ki) at rat mGluR5 is less than 200 nM; at rat mGluR1, more than 500 nM.

Turning to `O=S(=O)(c1ccc(F)c(F)c1)c1cnc2cc(F)ccc2c1-c1ccccc1F` [Compound 261], the values for the Ki at rat mGluR5 and on rat mGluR1 were less than 200 nM and more than 500 nM, respectively.

Take `O=S(=O)(c1ccc(F)c(Cl)c1)c1cnc2cc(Cl)ccc2c1-c1cc(F)cc(F)c1` [Compound 262]: the Ki on rat mGluR5 and at rat mGluR1 was less than 200 nM throughout.

With `O=S(=O)(c1cc(Cl)cc(Cl)c1)c1cnc2cc(Cl)ccc2c1-c1cccc(Cl)c1` [Compound 263], the Ki is less than 200 nM at rat mGluR5 and 200 to 500 nM on rat mGluR1.

For `Nc1ccc2c(-c3cccc(F)c3)c(S(=O)(=O)c3ccc(F)c(F)c3)cnc2c1` [Compound 264, 7-Amino-3-(3,4-difluoro-benzenesulfonyl)-4-(3-fluoro-phenyl)-quinoline], the Ki at rat mGluR5 is less than 200 nM; on rat mGluR1, 200 to 500 nM.

Regarding `N#Cc1cccc(S(=O)(=O)c2cnc3ccccc3c2-c2cccc(Cl)c2)c1` [Compound 265], the figures for the Ki at rat mGluR5 and at rat mGluR1 were less than 200 nM and more than 500 nM, respectively.

On to `N#Cc1cc(F)cc(S(=O)(=O)c2cnc3ccccc3c2-c2ccc(F)c(F)c2)c1` [Compound 266], for which the results for the Ki on rat mGluR5 and at rat mGluR1 were less than 200 nM and more than 500 nM, respectively.

On to `N#Cc1cc(F)cc(S(=O)(=O)c2cnc3cc(F)ccc3c2-c2ccc(Cl)cc2)c1` [Compound 268], for which the Ki is less than 200 nM at rat mGluR5 and more than 500 nM at rat mGluR1.

Turning to `N#Cc1cc(F)cc(S(=O)(=O)c2cnc3cc(Cl)ccc3c2-c2ccc(Cl)cc2)c1` [Compound 269], the results for the Ki at rat mGluR5 and at rat mGluR1 were less than 200 nM and more than 500 nM, respectively.

For the molecule `N#Cc1cc(F)cc(S(=O)(=O)c2cnc3ccccc3c2-c2ccc(F)cc2)c1` [Compound 271], the Ki on rat mGluR5 was less than 200 nM; on rat mGluR1, more than 500 nM.

Turning to `N#Cc1cc(F)cc(S(=O)(=O)c2cnc3ccccc3c2-c2ccc(Cl)cc2)c1` [Compound 272], the Ki at rat mGluR5 was less than 200 nM; at rat mGluR1 it was more than 500 nM.

Turning to `N#Cc1cc(S(=O)(=O)c2cnc3ccccc3c2-c2ccc(Cl)cc2)ccc1F` [Compound 273], the Ki on rat mGluR5 was less than 200 nM; on rat mGluR1 it was more than 500 nM.

`N#Cc1cc(S(=O)(=O)c2cnc3cc(F)ccc3c2-c2ccc(Cl)cc2)ccc1F` [Compound 274]: the inhibition constant (Ki) at rat mGluR5 was less than 200 nM; on rat mGluR1 it was more than 500 nM.

Take `N#Cc1cc(S(=O)(=O)c2cnc3cc(F)ccc3c2-c2ccc(F)cc2)ccc1F` [Compound 275]: the Ki at rat mGluR5 was less than 200 nM; at rat mGluR1 it was more than 500 nM.

Turning to `N#Cc1cc(S(=O)(=O)c2cnc3cc(Cl)ccc3c2-c2ccc(F)cc2)ccc1F` [Compound 276], the Ki on rat mGluR5 is less than 200 nM; at rat mGluR1, 200 to 500 nM.

As to `N#Cc1cc(S(=O)(=O)c2cnc3cc(Cl)ccc3c2-c2ccc(Cl)cc2)ccc1F` [Compound 277], the inhibitory constant (Ki) on rat mGluR5 is less than 200 nM; at rat mGluR1, 200 to 500 nM.

Take `N#Cc1cc(F)cc(S(=O)(=O)c2cnc3c(N)cccc3c2-c2ccc(F)cc2)c1` [Compound 278]: the Ki was less than 200 nM on rat mGluR5 and more than 500 nM at rat mGluR1.

Turning to `N#Cc1cc(F)cc(S(=O)(=O)c2cnc3c(N)cccc3c2-c2cccc(F)c2)c1` [Compound 279], the Ki at rat mGluR5 was less than 200 nM; on rat mGluR1, more than 500 nM.
